Reference: PMC11213934, “Allosteric modulators of M1 muscarinic receptors enhance acetylcholine efficacy and decrease locomotor activity and turning behaviors in zebrafish” (Scientific Reports, 2024)
“Also recorded” adds a separate entry of the source. Marks after values point to notes of the source that are not given here.

How the values were obtained:
[1] = test system: wild-type (AB) zebrafish (Danio rerio); type: in vivo; settings: compound at 10 µM relative to controls; mean ± s.e.m., N = 12
[2] = test system: wild-type (AB) zebrafish (Danio rerio); assay: Maximum tolerated concentration (MTC) determination in larval zebrafish; type: in vivo; settings: for MTC (maximum tolerated concentration): after 24 h exposure, 5 dpf larvae
Protocol: (§1) Larval zebrafish were produced in the University of Toledo zebrafish core facility and housed in an incubator maintained at 28 °C on a 14:10 h cycle. Fish were acclimated to the testing room conditions the evening prior to testing. All testing took place during the 14 h light cycle after the lights had been on for at least 2 h.
Determination of maximum tolerated concentration (adapted from Berghmans)[52] was completed by placing 5 days post fertilization (dpf) wild-type zebrafish larvae in a 24 well plate at 6 fish per well, and one compound concentration per well. […] Death was determined by the absence of heartbeat. Additional endpoints were used to assess toxicity at non-lethal concentrations such as startle capacity (poke stimulus), abnormalities in swimming behavior (loss of dorsoventral balance), and gross morphological deformities (bent body). […] The MTC determination was used to select three doses of each compound (low, medium, high dose) to be used in behavioral assays.

[3] = target: T1, human M1 muscarinic receptors (Homo sapiens, UniProt P11229); assay: [3H]-arachidonic acid release in CHO cells expressing M1 receptors, with and without ACh (single modulator concentration, four-parameter curves); type: cell-based; set-up: expressed in transfected cells; host or cells: CHO cells stably transfected with hM1, obtained from Mark Brann's laboratory (NIH); settings: for 0.1 µM ACh: response with modulator present divided by response to ACh alone / 100 µM ACh: response with modulator present divided by response to ACh alone / No ACh: agonist effect of the allosteric ligand by itself, fraction of the maximal response that could be elicited by ACh: modulator 10 µM, CHO-hM1, mean ± s.e.m.; for No ACh: agonist effect of the allosteric ligand by itself, fraction of the maximal response that could be elicited by ACh: at least 4 determinations; for Effect on M1 receptor activity and ACh response, in words: modulators at 10 µM (amiodarone 30 µM)
T1 sequence (P11229 1-460): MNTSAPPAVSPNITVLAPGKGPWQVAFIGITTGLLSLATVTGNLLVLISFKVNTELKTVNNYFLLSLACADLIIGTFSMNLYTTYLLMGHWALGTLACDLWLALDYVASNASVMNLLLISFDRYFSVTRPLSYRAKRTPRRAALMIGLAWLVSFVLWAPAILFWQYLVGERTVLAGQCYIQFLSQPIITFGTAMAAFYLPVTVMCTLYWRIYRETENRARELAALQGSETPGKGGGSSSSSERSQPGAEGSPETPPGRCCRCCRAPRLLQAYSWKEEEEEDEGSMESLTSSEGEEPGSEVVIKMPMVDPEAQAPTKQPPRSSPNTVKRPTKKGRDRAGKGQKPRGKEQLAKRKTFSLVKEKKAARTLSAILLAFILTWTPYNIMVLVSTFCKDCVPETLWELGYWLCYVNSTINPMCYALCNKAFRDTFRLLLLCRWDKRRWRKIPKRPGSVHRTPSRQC
Protocol: CHO cells expressing human M1 muscarinic receptors were cultured at 37 °C in a 5% CO2 atmosphere in F12 medium supplemented with 5% fetal bovine serum, 100 units/ml penicillin, and 100 µg/ml streptomycin. These cells were obtained from Mark Brann’s laboratory when they were at NIH and have been in use by us and others for many years.
Measurement of [^3H]AA release was performed as described in Stahl and Ellis[24]. Stably transfected CHO-hM1 cells were seeded on 24-well plates (Greiner Bio-One GmbH, Frickenhausen, Germany) at a density of 5.0 × 10^4 cells/well in 0.5 ml of F-12 medium. Cells were incubated until they attached (approximately 3 h), followed by the addition of [^3H]AA to a final concentration of 0.05 μCi of [^3H]AA per well. The cells were then grown for 16 to 20 h before the assay was performed. [^3H]AA release was measured in Eagle’s basal medium with 20 mM HEPES and 2 mg/ml fatty acid-free bovine serum albumin (EM-BSA). Cells were rinsed twice with EM-BSA, followed by the addition of EM-BSA media containing experimental agents and incubated for 1 h at 37 °C. The assay was terminated by aspiration of the media, and the amount of [^3H]AA released was determined by liquid scintillation counting (Beckman-Coulter LS6500).
Where indicated (Fig. 2), cells were pretreated with POB to reduce the number of available receptors per cell. Stock POB was made up at 10 mM in ethanol and stored at −20C. Each well was pretreated with 0.5 ml of the appropriate concentration in PBS with 1 mM CaCl2 and 1 mM MgCl2 (PBS+ +) for 30 min at 37 °C, followed by 5 washes with PBS+ + . After pretreatment, the normal protocol follows as above.
Tabulated [^3H]AA release data are represented as a fraction of maximal release elicited by ACh or as the fraction of release elicited by the relevant concentration of ACh alone, as indicated. Dose-response curves were normalized to the maximal response of ACh without allosteric ligand. Where indicated, response curves were analyzed using the empirical four-parameter equation: Y=Top+Bottom-Top/1+X/C50^n where X is the concentration of the ligand used, Y is the amount of response, C50 is the concentration of the ligand that produces 50% of the maximal effect, Top and Bottom are the top and bottom plateaus of the curve, and n is related to the Hill slope for the curve. Where indicated, families of response curves were analyzed according to an allosteric operational model[50],[51]: Y=EM[τAA(KB+αβB)+τBBKA]/[τAA(KB+αβB)+τBBKA+AKB+KAKB+KAB+αAB] where EM is the maximal response; A is the concentration of ACh; B is the concentration of the allosteric ligand; τA and τB represent the operational efficacies of A and B, respectively; KA and KB are the equilibrium dissociation constants of A and B; and α and β represent the cooperativities between A and B in terms of binding and activation, respectively. Curve-fitting was carried out with GraphPad Prism, version 5.0 or 6.0 (San Diego CA).

[4] = target: T1, human M1 muscarinic receptors; assay: [3H]AA release ACh dose-response families fitted to an allosteric operational model; settings: for Affinity-B, logKB: given as logKB (negative log value), allosteric site
[5] = test system: wild-type (AB) zebrafish (Danio rerio); assay: animal or person; type: in vivo; settings: for Distance moved / Variance turn angle: compound at 10 µM relative to controls, mean ± s.e.m., N = 12; for MEC: locomotor behaviors
Protocol: as §1
The movement of larval zebrafish was monitored with the Noldus behavior recording system (Noldus Information Technology, Leesburg VA) and quantified using EthoVision® XT 15 software (Noldus Information Technology, Leesburg VA). Five-dpf zebrafish larvae were exposed to a range of nonlethal concentrations of compounds in a 24-well plate with appropriate controls. The plate was immediately placed in the incubator for a 30-min exposure period. After 30 min, the plate was transferred to the Noldus system and swimming behavior was recorded in 100% light for 30 min to measure spontaneous swimming behavior. The light was switched off for 10 min (dark period) and then switched on for 10 min (light period), which was then repeated for two additional cycles. In total, the larvae were exposed to three cycles of alternating 10 min dark and light periods (100% darkness-to-100% light). Each drug challenge was conducted on three separate plates with n = 6 larvae/dose/plate.
Absolute turn angle (TA) and angular velocity provided measures of the extent of turning behavior, while the intra-individual variance of turn angle quantified how consistently (low variance) or inconsistently (high variance) fish turned. A lowered intra-individual variance of turning reflected repeatedly performing the same turning behavior, a stereotypy.
All data for exposure and the behavioral end points were analyzed by one-way ANOVA (factor: drug concentration) followed by a Dunnett’s multiple comparisons test for post hoc significance between drug concentration and control group. Statistically significant differences are noted as follows; *p < 0.05; **p < 0.01; ***p < 0.001.

SMILES	Angular velocity [1]	MTC (maximum tolerated concentration) [2]	Concentration up to which no signs of toxicity were produced ([2]; highest concentration tested)	0.1 µM ACh: response with modulator present divided by response to ACh alone [3]	100 µM ACh: response with modulator present divided by response to ACh alone [3]	No ACh: agonist effect of the allosteric ligand by itself, fraction of the maximal response that could be elicited by ACh [3]	Effect on M1 receptor activity and ACh response, in words [3]	Operational efficacy-B, τB ([4]; best-fit ± s.e.m., Em set to 2.0)	Affinity-B, logKB ([4]; Em set to 2.0)	Kb ([4]; read-out: KB, affinity for M1 muscarinic receptors, allosteric operational model)	Concentration with significant effects on locomotor behaviors ([5]; AB zebrafish)	Distance moved [5]	Variance turn angle [5]	MEC [5]	Effect on locomotor activity and turning behaviors, in words ([5]; 30 min spontaneous swimming period)	Therap. index [5]
COc1c(Br)cc(CN2C(=O)C(=O)c3ccccc32)cc1Br [Compound 8c, 1-(3,5-dibromo-4-methoxybenzyl)indoline-2,3-dione]	201.6 ± 20.2 %	> 30 µM	≥ 30 µM	2.62 ± 0.19	1.42 ± 0.09	0.19 ± 0.03	dramatically enhanced ACh efficacy	0.33 ± 0.06	−5.53 ± 0.15	3000 nM	1 µM	26.9 ± 3.7*** %	150.8 ± 12.0*** %	0.1 µM	–	–
CCN(CC)CCOc1ccc(CN2C(=O)C(=O)c3ccccc32)cc1 [Compound 7, 1-(4-(2-(diethylamino)ethoxy)benzyl)indoline-2,3-dione]	122.4 ± 6.9%	10 µM	–	0.06 ± 0.01	1.11 ± 0.06	0.02 ± 0.01	primarily decreased potency and slightly enhanced the efficacy of ACh; also recorded: lacked intrinsic activity; also recorded: decreased ACh potency with little impact on ACh efficacy	–	−6.20 ± 0.33	–	–	72.5 ± 11.8%	93.9 ± 10.6%	> 10 µM	not effective in reducing locomotor activity or elevating angular velocity or variance of turn angle	–
COc1c(Cl)cc(CN2C(=O)C(=O)c3ccccc32)cc1Cl [Compound 8e, 1-(3,5-dichloro-4-methoxybenzyl)indoline-2,3-dione]	222.1 ± 25.0 %	100 µM	–	2.29 ± 0.14	1.21 ± 0.07	0.13 ± 0.04	–	–	–	–	–	29.1 ± 5.3*** %	158.8 ± 14.3*** %	1 µM	–	100
CCCCc1oc2ccccc2c1C(=O)c1cc(I)c(OCCN(CC)C(C)=O)c(I)c1 [Compound 5, N-(2-(4-(2-butylbenzofuran-3-carbonyl)-2,6-diiodophenoxy)ethyl)-N-ethylacetamide]	104.0 ± 10.7%	10 µM	–	1.86 ± 0.42	1.47 ± 0.09	0.22 ± 0.03	significant intrinsic agonist activity	–	–	–	–	108.0 ± 12.9%	102.5 ± 8.1%	> 10 µM	–	–
CCCCc1oc2ccccc2c1C(=O)c1cc(I)c(OC)c(I)c1 [Compound 6b, (2-butylbenzofuran-3-yl)(3,5-diiodo-4-methoxyphenyl)methanone]	132.3 ± 16.9%	30 µM	–	1.78 ± 0.12	1.36 ± 0.07	0.08 ± 0.02	increased ACh activity	–	–	–	–	75.3 ± 8.5* %	133.7 ± 14.0* %	> 30 µM	–	–
CCCCc1oc2ccccc2c1C(=O)c1ccc(OCCN(CC)CC)cc1 [Compound 6c, (2-butylbenzofuran-3-yl)(4-(2-(diethylamino)ethoxy)phenyl)methanone]	129.9 ± 20.1%	3 µM	–	0.40 ± 0.11	1.04 ± 0.05	0.04 ± 0.01	decreased ACh activity	–	–	–	–	59.8 ± 8.8%	136.4 ± 11.8%	0.1 µM	–	30
COc1c(F)cc(CN2C(=O)C(=O)c3ccccc32)cc1F [Compound 8g, 1-(3,5-difluoro-4-methoxybenzyl)indoline-2,3-dione]	144.5 ± 18.6 %	30 µM	–	1.41 ± 0.13	0.95 ± 0.05	0.03 ± 0.01	–	–	–	–	–	65.7 ± 11.7*** %	126.5 ± 10.4* %	1 µM	–	30
